This is an account of results in patent EP2155158B1, “PERSONAL LUBRICANT COMPOSITION” (LRC Products Limited, priority 2007, dated 2008).

Where two headings read alike, the source gives them in different places.

The nature of data set [1]: Cooling strength of coolants relative to menthol. The settings on record: menthol = 100. The source says: N-ethyl-p-menthane-3-carboxamide has, to date, primarily been used in oral, medicinal and confectionary products, such as breath freshening chewing gums. […]
Data set [2] in a line: Crystallisation / clouding at low temperatures. The class given is physicochemical.
Data set [3] can be described thus: Volatility compared with menthol. The class given is physicochemical.

As for `C=C(C)C1CCC(C)CC1O` (stereo not shown) [Isopulegol, 2-isopropenyl-5-methyl-cyclohexanol], in data set [1], the “Cooling strength relative to menthol” value came out at 25.
`CC1CCC(C(C)C)C(O)C1` (stereo not shown) [Menthol]: the “Cooling strength relative to menthol” value in data set [1] is listed as 100. In addition, the “loss of coolant on storage (reduction in the level of retained coolant)” value (personal lubricant formulation, 2190 h) is reported as “about 50%”.
In the case of `CC1CCC(C(C)C)C(OC(=O)C(C)O)C1` (stereo not shown) [Menthyl lactate], the “Cooling strength relative to menthol” value in data set [1] came out at 43.
For `CCNC(=O)C1CC(C)CCC1C(C)C` (stereo not shown) [WS-3, N-ethyl-p-menthane-3-carboxamide], the “Cooling strength relative to menthol” value in data set [1] stood at 150. The “crystallisation at low temperatures” value in data set [2] is “does not crystallise at low temperatures”. Moreover, in data set [3], the volatility entry is on record as “lower volatility than menthol”. The “loss of coolant on storage (reduction in the level of retained coolant)” value (in personal lubricant formulation, storage for 3 months at 40°C) was “no loss”.
`CNC(=O)C(C)(C(C)C)C(C)C` [WS-23]: the “Cooling strength relative to menthol” value in data set [1] was found to be 75.
With Menthone lactate, in data set [1], the “Cooling strength relative to menthol” value was determined as 41.
